# Where a name gives a salt, the structure may show the parent alone.
# Target: IRAK4 (Homo sapiens (Human), UniProt Q9NWZ3)
# Experiment: IRAK4 Kinase Assay (IMAP fluorescence polarization)
# Assay type: biochemical
# Details: 0.5 nM GST tagged IRAK4, 100 μM ATP, 30 minutes at 25° C., IMAP FP
# In short: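 GST-tagged IRAK4 (0.5 nM) phosphorylated 100 nM fluorescent peptide RP7030 with 100 μM ATP in 10 mM Tris-HCl pH 7.2, MgCl2, DTT and Tween 20 for 30 min at 25 °C. Phosphorylation was read as the increase in fluorescence polarization after binding to IMAP nanoparticles.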
# IRAK4, sequence (Q9NWZ3 whole entry): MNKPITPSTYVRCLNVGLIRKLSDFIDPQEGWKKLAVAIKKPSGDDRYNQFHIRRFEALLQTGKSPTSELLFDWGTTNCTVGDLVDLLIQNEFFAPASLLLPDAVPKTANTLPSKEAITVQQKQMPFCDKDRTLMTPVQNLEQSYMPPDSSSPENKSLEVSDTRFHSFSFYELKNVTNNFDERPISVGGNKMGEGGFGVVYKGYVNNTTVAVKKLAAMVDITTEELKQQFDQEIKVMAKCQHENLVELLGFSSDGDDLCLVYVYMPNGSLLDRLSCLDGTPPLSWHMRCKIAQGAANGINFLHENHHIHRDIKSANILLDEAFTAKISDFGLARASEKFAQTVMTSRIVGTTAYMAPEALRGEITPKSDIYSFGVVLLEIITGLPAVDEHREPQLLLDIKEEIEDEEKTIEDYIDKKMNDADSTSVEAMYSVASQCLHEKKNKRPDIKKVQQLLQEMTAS
row,SMILES,IC50 [nM]
1,"O=C(Nc1ccccc1Cl)c1ccc2ccc(N[C@@H]3CCCC[C@@H]3O)nn12 [Example 93, N-(2-chlorophenyl)-2-{[(1R,2S)-2-hydroxycyclohexyl]amino}pyrrolo[1,2-b]pyridazine-7-carboxamide trifluoroacetate]",6840
2,"O=C(Nc1cscc1C(F)F)c1ccc2ccc(N3CCCNCC3)nn12 [Example 69, 2-(1,4-diazepan-1-yl)-N-[4-(difluoromethyl)thiophen-3-yl]pyrrolo[1,2-b]pyridazine-7-carboxamide trifluoroacetate]",151
3,"Cn1cc(NC(=O)c2ccc3ccc(N4C[C@@H]5CN[C@@H](C5)C4)nn23)c(C(F)F)n1 (single isomer, unassigned) [Example 50, 2-[(1S,5S)- or (1R,5R)-3,6-diazabicyclo[3.2.1]oct-3-yl]-N-[3-(difluoromethyl)-1-methyl-1H-pyrazol-4-yl]pyrrolo[1,2-b]pyridazine-7-carboxamide]",4
4,"Cn1cc(NC(=O)c2ccc3ccc(N4C[C@H]5CC[C@@H]4CN5)nn23)c(C(F)F)n1 (single isomer, unassigned) [Example 38, 2-[(1S,4S)- or (1R,4R)-2,5-diazabicyclo[2.2.2]oct-2-yl]-N-[3-(difluoromethyl)-1-methyl-1H-pyrazol-4-yl]pyrrolo[1,2-b]pyridazine-7-carboxamide trifluoroacetate]",2
5,"N[C@H]1CCCC[C@H]1Nc1ccc2ccc(C(=O)Nc3cscc3C(F)F)n2n1 [Example 72, 2-{[(1R,2S)-2-aminocyclohexyl]amino}-N-[4-(difluoromethyl)thiophen-3-yl]pyrrolo[1,2-b]pyridazine-7-carboxamide trifluoroacetate]",24
6,"O=C(Nc1ccccc1Br)c1ccc2ccc(N[C@@H]3CCCC[C@@H]3O)nn12 [Example 95, N-(2-bromophenyl)-2-{[(1R,2S)-2-hydroxycyclohexyl]amino}pyrrolo[1,2-b]pyridazine-7-carboxamide trifluoroacetate]",5860
7,"Cn1cc(NC(=O)c2ccc3ccc(N4CCNCC5(CC5)C4)nn23)c(C(F)(F)F)n1 [Example 9, 2-(5,8-diazaspiro[2.6]non-5-yl)-N-[1-methyl-3-(trifluoromethyl)-1H-pyrazol-4-yl]pyrrolo[1,2-b]pyridazine-7-carboxamide trifluoroacetate]",27
8,"Cn1cc(NC(=O)c2ccc3ccc(N[C@@H]4CCCCNC4)nn23)c(C(F)(F)F)n1 (single isomer, unassigned) [Example 39, 2-[(3R)- or (3S)-azepan-3-ylamino]-N-[1-methyl-3-(trifluoromethyl)-1H-pyrazol-4-yl]pyrrolo[1,2-b]pyridazine-7-carboxamide trifluoroacetate]",2
9,"O=C(Nc1ccsc1C(F)(F)F)c1ccc2ccc(N3C[C@H]4CC[C@@H]3CN4)nn12 (single isomer, unassigned) [Example 114, 2-[(1S,4S)- or (1R,4R)-2,5-diazabicyclo[2.2.2]oct-2-yl]-N-[2-(trifluoromethyl)thiophen-3-yl]pyrrolo[1,2-b]pyridazine-7-carboxamide trifluoroacetate]",1770
10,"N#Cc1ccccc1NC(=O)c1ccc2ccc(N3CC4CCC3CN4)nn12 (stereo not shown) [Example 102, N-(2-cyanophenyl)-2-(2,5-diazabicyclo[2.2.2]oct-2-yl)pyrrolo[1,2-b]pyridazine-7-carboxamide trifluoroacetate]",461
11,"Cn1cc(NC(=O)c2ccc3ccc(N4C[C@@H]5CC[C@H]4CN5)nn23)c(Cl)n1 (single isomer, unassigned) [Example 33, N-(3-chloro-1-methyl-1H-pyrazol-4-yl)-2-[(1S,4S)- or (1R,4R)-2,5-diazabicyclo[2.2.2]oct-2-yl]pyrrolo[1,2-b]pyridazine-7-carboxamide trifluoroacetate]",45
12,"O=C(Nc1cscc1Cl)c1ccc2ccc(N3C[C@H]4CC[C@@H]3CN4)nn12 (single isomer, unassigned) [Example 84, N-(4-chlorothiophen-3-yl)-2-[(1S,4S)- or (1R,4R)-2,5-diazabicyclo[2.2.2]oct-2-yl]pyrrolo[1,2-b]pyridazine-7-carboxamide trifluoroacetate]",126

# Further lines, results first:
row,IC50 [nM],SMILES
1,27,"Cn1cc(NC(=O)c2ccc3ccc(N4CC5CCC4CN5)nn23)c(C(F)(F)F)n1 (stereo not shown) [Example 11, 2-(2,5-diazabicyclo[2.2.2]oct-2-yl)-N-[1-methyl-3-(trifluoromethyl)-1H-pyrazol-4-yl]pyrrolo[1,2-b]pyridazine-7-carboxamide]"
2,1320,"O=C(Nc1ccsc1Br)c1ccc2ccc(N3CCCNCC3)nn12 [Example 76, N-(2-bromothiophen-3-yl)-2-(1,4-diazepan-1-yl)pyrrolo[1,2-b]pyridazine-7-carboxamide trifluoroacetate]"
3,7,"N#Cc1ccccc1NC(=O)c1ccc2ccc(N[C@H]3CCCCNC3)nn12 (single isomer, unassigned) [Example 109, 2-[(3R)- or (3S)-azepan-3-ylamino]-N-(2-cyanophenyl)pyrrolo [1,2-b]pyridazine-7-carboxamide trifluoroacetate]"
4,11,"N[C@H]1CCCC[C@H]1Nc1ccc2ccc(C(=O)Nc3ccccc3Br)n2n1 [Example 58, 2-{[(1R,2S)-2-aminocyclohexyl]amino}-N-(2-bromo-phenyl)pyrrolo[1,2-b]pyridazine-7-carboxamide trifluoroacetate]"
5,1860,"N#Cc1ccccc1NC(=O)c1ccc2ccc(N[C@@H]3CCCC[C@@H]3O)nn12 [Example 104, N-(2-cyanophenyl)-2-{[(1R,2S)-2-hydroxycyclohexyl]amino}pyrrolo[1,2-b]pyridazine-7-carboxamide trifluoroacetate]"
6,22,"Cn1cc(NC(=O)c2ccc3ccc(N4C[C@H]5CC[C@@H]4CN5)nn23)c(Br)n1 (single isomer, unassigned) [Example 36, N-(3-bromo-1-methyl-1H-pyrazol-4-yl)-2-[(1S,4S)- or (1R,4R)-2,5-diazabicyclo[2.2.2]oct-2-yl]pyrrolo[1,2-b]pyridazine-7-carboxamide trifluoroacetate]"
7,43,"Cn1cc(NC(=O)c2ccc3ccc(N[C@@H]4CCCC(F)(F)[C@@H]4N)nn23)c(C#N)n1 [Example 52, 2-{[(1R,2R)-2-amino-3,3-difluoro-cyclohexyl]amino}-N-(3-cyano-1-methyl-1H-pyrazol-4-yl)pyrrolo[1,2-b]pyridazine-7-carboxamide trifluoroacetate]"
8,6,"N#Cc1ccccc1NC(=O)c1ccc2ccc(N[C@@H]3CCCNC3)nn12 [Example 105, N-(2-cyanophenyl)-2-[(3R)-piperidin-3-ylamino]pyrrolo[1,2-b]pyridazine-7-carboxamide trifluoroacetate]"
9,2,"N#Cc1sccc1NC(=O)c1ccc2ccc(N[C@@H]3CCCC[C@@H]3N)nn12 [Example 75, 2-{[(1R,2S)-2-aminocyclohexyl]amino}-N-(2-cyanothiophen-3-yl)pyrrolo[1,2-b]pyridazine-7-carboxamide trifluoroacetate]"
10,63,"Cn1cc(NC(=O)c2ccc3ccc(N4CCNCC4)nn23)c(C(F)(F)F)n1 [Example 99, N-(1-Methyl-3-(trifluoromethyl)-1H-pyrazol-4-yl)-2-(piperazin-1-yl)pyrrolo[1,2-b]pyridazine-7-carboxamide]"
11,6,"N[C@H]1CCCC[C@H]1Nc1ccc2ccc(C(=O)Nc3ccccc3Cl)n2n1 [Example 65, 2-{[(1R,2S)-2-aminocyclohexyl]amino}-N-(2-chlorophenyl)pyrrolo[1,2-b]pyridazine-7-carboxamide trifluoroacetate]"
12,4,"N[C@H]1CCCC[C@H]1Nc1ccc2ccc(C(=O)Nc3ccsc3Cl)n2n1 [Example 71, 2-{[(1R,2S)-2-aminocyclohexyl]amino}-N-(2-chlorothiophen-3-yl)pyrrolo[1,2-b]pyridazine-7-carboxamide trifluoroacetate]"
13,415,"O=C(Nc1cscc1Br)c1ccc2ccc(N3CC4CCC3CN4)nn12 (stereo not shown) [Example 62, N-(4-bromothiophen-3-yl)-2-(2,5-diazabicyclo[2.2.2]oct-2-yl)pyrrolo[1,2-b]pyridazine-7-carboxamide trifluoroacetate]"

# From patent publication US10040798B2, “Pyrrolopyridazine inhibitors of IRAK4 activity” (MERCK SHARP & DOHME CORP., priority 2015, dated 2018)
